# According to US5663151A, “Sulfated α-glycolipid derivatives as cell adhesion inhibitors” (Bristol-Myers Squibb Company, priority 1995, dated 1997):
# Columns and labels:
# P-selectin Rg = target: T1, P-selectin Rg (Homo sapiens, UniProt P16109); experiment: HL-60 cell binding to P-selectin Rg; assay type: cell-based; conditions: HL-60 cells, binding to P-selectin Rg coated wells
# T1 construct: consists of the human lectin domain, the EGF domain, and two complement repeats of the human selectins; made in house
# T1 sequence (P16109 with tags, fused parts or gaps limits assumed): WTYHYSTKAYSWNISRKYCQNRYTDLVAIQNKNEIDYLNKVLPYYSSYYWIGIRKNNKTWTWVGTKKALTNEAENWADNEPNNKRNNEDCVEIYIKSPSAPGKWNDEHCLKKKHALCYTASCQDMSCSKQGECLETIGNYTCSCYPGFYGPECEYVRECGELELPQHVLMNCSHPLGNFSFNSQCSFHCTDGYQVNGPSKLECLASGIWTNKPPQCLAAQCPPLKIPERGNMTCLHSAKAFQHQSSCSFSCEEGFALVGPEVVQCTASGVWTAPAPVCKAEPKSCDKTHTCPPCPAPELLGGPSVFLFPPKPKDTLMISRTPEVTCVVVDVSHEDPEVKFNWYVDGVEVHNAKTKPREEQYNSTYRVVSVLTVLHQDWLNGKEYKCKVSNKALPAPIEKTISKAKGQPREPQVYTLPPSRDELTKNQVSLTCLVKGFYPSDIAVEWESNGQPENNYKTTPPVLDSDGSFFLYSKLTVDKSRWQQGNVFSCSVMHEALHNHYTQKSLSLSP
# Description: 2. HL-60 Cell Binding to P- and E-Selectin RG
# The chimeric P- and E-selectin receptor globulin (Rg) consists of the human lectin domain, the EGF domain, and two complement repeats of the human selectins fused to the hinge, CH1 and CH2 domains of human IgG1. These proteins were prepared as described by Aruffo, et al., Cell (1991) 67: 35-44; Walz, et al., Science (1990) 250, 1132-1135.
# The HL-60 cell line, obtained from the American Type Culture Collection, ATCC No. CCL240, was employed to investigate P-selectin Rg binding. Assays were done in 96-well tissue culture dishes. The wells were first coated with 0.5 ug goat anti-human Fc antiserum overnight, and nonspecific binding sites were blocked by incubation of the wells with 1% nonfat dry milk in phosphate buffered saline (PBS containing 0.9 mM CaCl2 and 0.8 mM MgSO4) for 30 minutes. The Rg was then bound to the anti Fc-coated wells by incubating 50 ng in 50 ul of PBS for two hours. Cells, washed twice and resuspended in PBS to remove traces of medium components, were labeled with 10 uM calcein acetoxy methyl ester for 30 minutes at 3×10^7 cells per ml at room temperature. Serum-containing medium (RPMI with 20% fetal calf serum) was added, and the cells washed, followed by resuspension in PBS and a further spin. The labeled cells, resuspended in PBS, were added to twice washed Rg-containing wells at 200,000 per well. Following a 30 minute incubation with slow shaking, the wells were aspirated and washed three times with PBS to remove unbound cells. To certain wells were added known numbers of cells for determination of a standard curve of fluorescent units per cell. The fluorescence on the plate was quantitated using a fluorescent plate reader. Following subtraction of a blank representing the binding of cells to non-Rg containing wells (<5000 cells), the specific binding to P- or E- selectin was determined.
# Inhibitors of cell binding
# Test compounds were prepared by dissolution to a final concentration of 20 mg/ml in dimethyl sulfoxide (DMSO), diluted in PBS to 2 mg/ml, and briefly sonicated prior to use. The Rg coated wells were preincubated at room temperature for 15 minutes with the inhibitor, and 200,000 cells were added to yield the final indicated inhibitor concentration in 160 ul of PBS. The data is obtained as percent inhibition of specific binding: [formula] and a plot of dose vs. percent inhibition of Rg binding is generated in which IC50 (μM) is calculated and reported in Table 1.
# P-selectin [1] = target: T2, P-selectin (Homo sapiens, UniProt P16109); experiment: P-selectin binding ELISA to immobilized sulfatides (cell free); conditions: inhibition of P-selectin binding to immobilized sulfatide
# T2 construct: consists of the human lectin domain, the EGF domain, and two complement repeats of the human selectins; made in house
# T2 sequence (P16109 with tags, fused parts or gaps limits assumed): as above
# Description: Based on the availability of soluble forms of P-selectin prepared as described by Aruffo, A., et al., Cell, 67, 35-44 (1991), a binding ELISA based assay modified from Foxall, et al., J., Cell Biol., 117, 895-902 (1992) was developed to measure inhibitors of P-selectin binding to immobilized sulfatides. Such inhibitors were tested in the assay described below.
# 0.1 ml of sulfatide (SIGMA) or lysosulfatide (SIGMA) each at 1 μg/ml in MeOH were added to the wells of a 96-well ELISA plate (ProBind, Falcon) and allowed to dry overnight at room temperature. The next day the antigen coated plates were blocked for 1.5 hours at room temperature with 5% BSA (ICN) in buffer containing 20 mM Hepes and 0.15M NaCl, pH 8.0. Wild type P-selectin and mutants thereof were first mixed with HRP-conjugated goat anti-human lgG (Fisher Scientific), serially diluted and then incubated for 30 minutes at 37° C. in buffer containing 20 mM Hepes, 0.15M NaCl, 1% BSA and 0.8 mM CaCl2, pH 8.0 prior to addition to the BSA blocked plates. Following the 30 minute preincubation, the fusion protein-HRP conjugate immunocomplexes were incubated on the blocked antigen coated plates for 45 minutes at 37° C. in the presence or absence of the test compounds and then washed to remove any unbound proteins. Bound complexes were detected by addition of substrate buffer (95 mM NaOAc.3H2 O, 5 mM citric acid monohydrate, 1.4 mM urea/H2O2) containing 3, 3', 5, 5' Tetramethylbenzidine (SIGMA). Reactions were stopped by the addition of 3N sulfuric acid and the absorbance read on an ELISA reader at dual wavelengths 450 and 630 nm. The efficacy of these compounds was compared to that of sulfatide (positive control) or to lysosulfatide (negative control). The data is obtained as percent inhibition of specific binding [formula] and a plot of dose vs. percent inhibition of Rg binding is generated in which IC50 (μM) is calculated and reported as cell free data in Table 1.
# P-selectin [2] = conditions: Skinner et al.; cited from earlier work
# rats = experiment: Reverse passive Arthus reaction (RPA) in rats; assay type: in vivo, Male Sprague Dawley rats; conditions: 3 mg single dose IV, 4 hours; for RPA MPO % Inhib.: myeloperoxidase; for RPA VP % Inhib.: vascular permeability
# Text: 3. Reverse Passive Arthus Reaction in Rats
# The reverse passive Arthus reaction in rats is a modification of the method by Mulligan et al., as described in J. Clin. Invest. (1991) 88: 1396-1406. This is an experimental model in which the interaction of antigen-antibodycomplexes and complement leads to a severe vasculitis that is associated with edema, induration, erythema and hemorrhage. The interaction between the antigen-antibody complexes and complement leads to a localized influx of neutrophils. These neutrophils release a variety of mediators that are associated with tissue damage and vascular permeability. The localized inflammatory reaction is measured using different techniques i.e., vascular permeability and neutrophil influx which is evaluated both biochemically and microscopically.
# Male Sprague Dawley specific pathogen-free rats with jugular vein cannulae (280-320 g, Hill Top Labs, Pa.) are used in these studies. Animals are acclimated for at least 1 day and individually housed in stainless steel cages. The dorsal region of the rats is closely clipped 2 days prior to the experiments and divided into 4 sites on each side of the midline. Prior to all injections the rats are sedated with 0.4 ml per 300 gm rat of ketamine/rompun [1000 mg (10 ml) of ketamine HCL is mixed with 40 mg (2.0 ml) Rompun] administered IP and or inhalation anesthesia with metafane (methoxyflurane).
# Bovin Serum Albumin (BSA) and rabbit polyclonal IgG rich in anti-BSA are purchased from Sigma Chemical Co. (St. Louis, Mo.). Radiolabelled ^125 I-BSA (spAct 1-5 μCi/μg) is purchased from Dupont NEN (Boston, Mass.).
# Each rat is administered intradermal (ID) injection of (0.4 mg, 0.6 mg and 0.8 mg) anti-BSA in a volume of 100 μl per injection in normal saline. The ID injections are randomized near the mid dorsal region on both sides of the back bone. Immediately after the ID injections of the anti-BSA, the rats are administered intravenous (IV) injections of BSA (10 mg in 1.0 ml) in normal saline containing ^125 I labeled BSA (1 μCi/ml BSA or 5.0 μCi/kg body wt) for quantification of dermal vascular injury. Anti-inflammatory agents such as inhibitors of adhesion molecules of the present invention are administered IV at a single dose of 3 mg immediately after BSA. Four (4) hours after the IV injection of BSA, the rats are anesthetized with metafane and 2 to 3 ml of blood is withdrawn via the cannula into an anticoagulant containing (EDTA or Heparin) tube and plasma separated and saved for neutrophil and albumin quantitation. The rats are killed and the skin surrounding the injection site (15 mm diameter) is punched out and weighed. The skin samples and a fixed volume of plasma (0.1 to 1.0 ml) is analyzed in a gamma-counter for ^125 I content. Skin samples from the contralateral side are processed and analyzed for myeloperoxidase activity (MPO) as a measure of neutrophil accumulation. As needed, samples are also processed for histological evaluation of the reacted sites.
# Vascular Permeability (VP)
# The calculation of the plasma protein exudation into skin is made by determining the radioactivity in the tissue and relating this to the level of radioactive albumin in the blood at the time of sacrifice. […] [formula]
# Percent inhibition of the test compound at 3 mg was determined as follows: [formula] Myeloperoxidase (MPO)
# MPO is located in the azurophil granules of polymorphonuclear leukocytes (PMN). Because of its abundance in these cells (5% dry weight), this enzyme is used as a marker for tissue neutrophil content. For tissue MPO content, the method of Bradley, et al., was used as described in J. Invest. Dermatol. (1982) 78: 206-209. Biopsies from each treatment group were placed in plastic tubes (15×100 mm) containing 10 ml of 0.5% hexadecyltrimethylammonium bromide (HTAB) in 0.05M potassium phosphate buffer pH 6.0. The tissue was then homogenized with a Brinkmann Polytron homogenizer (10s). […]
IC50 (P-selectin Rg),IC50 (P-selectin [1]),Compound,inhibit P-selectin mediated adhesion (P-selectin [2]),RPA MPO % Inhib. (rats),RPA VP % Inhib. (rats)
8 µM,9 µM,"CCCCCCCC/C=C\CCCCCCCCCCCCCC(=O)N[C@@H](CO[C@H]1O[C@H](COS(=O)(=O)O)[C@H](OS(=O)(=O)O)[C@H](O)[C@H]1O)[C@H](O)/C=C/CCCCCCCCCCCCC [Example 4, (2S,3R,4E)-3-Hydroxy-2-(cis-15-tetracosenoylamino)-1-[4,6-di-O-(sodiumoxysulfonyl)-α-D-galactopyranosyloxy]-4-octadecene]",–,–,–
–,–,heparin,inhibit P-selectin mediated adhesion,–,–
5.2 µM,2.2 µM,"CCCCCCCCCCCCC/C=C/[C@@H](OC(=O)c1ccccc1)[C@H](CO[C@H]1O[C@H](COS(=O)(=O)O)[C@H](O)[C@H](O)[C@H]1OS(=O)(=O)O)NC(=O)CCCCCCCCCCCCCCC [Example 15, (2S,3R,4E)-3-Benzoyloxy-2-hexadecanoylamino-1-[2,6-di-O-(sodiumoxysulfonyl)-α-D-galactopyranosyloxy]-4-octadecene]",–,0%,50%
17 µM,0.2 µM,"CCCCCCCCCCCCC/C=C/[C@@H](O)[C@H](CO[C@H]1O[C@H](COS(=O)(=O)O)[C@H](OS(=O)(=O)O)[C@H](O)[C@H]1O)NC(=O)CCCCCCCCCCCCCCC [Example 2, (2S,3R,4E)-3-Hydroxy-2-hexadecanoylamino-1-[4,6-di-O-(sodiumoxysulfonyl)-α-D-galactopyranosyloxy]-4-octadecene]",–,0%,14%
–,–,dextran sulfate,inhibit P-selectin mediated adhesion,–,–
8.3 µM,0.3 µM,"CCCCCCCCCCCCC/C=C/[C@@H](OC(=O)c1ccccc1)[C@H](CO[C@H]1O[C@H](COS(=O)(=O)O)[C@H](OS(=O)(=O)O)[C@H](OC(=O)c2ccccc2)[C@H]1OC(=O)c1ccccc1)NC(=O)CCCCCCCCCCCCCCC [Example 1, (2S,3R,4E)-3-Benzoyloxy-2-hexadecanoylamino-1-[2,3-di-O-benzoyl-4,6-di-O-(sodiumoxysulfonyl)-α-D-galactopyranosyloxy]-4-octadecene]",–,97%,68%
11 µM,~0.4 µM,"CCCCCCCCCCCCC/C=C/[C@@H](OC(=O)c1ccccc1)[C@H](CO[C@H]1O[C@H](COS(=O)(=O)O)[C@@H](OS(=O)(=O)O)[C@H](OC(=O)c2ccccc2)[C@H]1OC(=O)c1ccccc1)NC(=O)CCCCCCCCCCCCCCC [Example 7, (2S,3R,4E)-3-Benzoyloxy-2-hexadecanoylamino-1-[-2,3-di-O-benzoyl-4,6-di-O-(sodiumoxysulfonyl)-α-D-glucopyranosyloxy]-4-octadecene]",–,97%,88%
8 µM,> 6.1 µM,"CCCCCC/C=C/[C@@H](OC(=O)c1ccccc1)[C@H](CO[C@H]1O[C@H](COS(=O)(=O)O)[C@H](OS(=O)(=O)O)[C@H](OC(=O)c2ccccc2)[C@H]1OC(=O)c1ccccc1)NC(=O)CCCCC [Example 10, (2S,3R,4E)-1-[2,3-di-O-benzoyl-4,6-Di-O-(sodiumoxysulfonyl)-α-D-galactopyranosyloxy]-3-benzoyloxy-2-hexanoylamino-4-undecene]",–,71.6%,11%
8.9 µM,1.7 µM,"CCCCCCCCCCCCC/C=C/[C@@H](OC(=O)c1ccccc1)[C@H](CO[C@H]1O[C@H](COS(=O)(=O)O)[C@H](OS(=O)(=O)O)[C@H](OCc2ccccc2)[C@H]1OCc1ccccc1)NC(=O)CCCCCCCCCCCCCCC [Example 11, (2S,3R,4E)-2-Hexadecanoylamino-3-benzoyloxy-1-[2,3-di-O-benzyl-4,6-di-O-(sodiumoxysulfonyl)-α-D-galactopyranosyloxy]-4-octadecene]",–,53.7%,32%
2.6 µM,> 8 µM,"CCCCCCCCCCCCC/C=C/[C@@H](OC(=O)c1ccccc1)[C@H](CO[C@H]1O[C@H](COS(=O)(=O)O)[C@H](OS(=O)(=O)O)[C@H](OS(=O)(=O)O)[C@H]1OS(=O)(=O)O)NC(=O)CCCCCCCCCCCCCCC [Example 23, (2S,3R,4E)-3-Benzoyloxy-2-hexadecanoylamino-1-[2,3,4,6-tetra-O-(sodiumoxysulfonyl)-α-D-galactopyranosyloxy]-4-octadecene]",–,26.4%,0%
